# Measured values published in US11427548B2 (Arvinas Operations, Inc., priority 2015, dated 2022).
# Like-named read-outs stand apart in the source and are kept apart here.
# Target: T1, Androgen Receptor (Homo sapiens, UniProt P10275)
# T1 construct: endogenous in cells; host or cells: VCaP cells
# T1 sequence (P10275 1-920): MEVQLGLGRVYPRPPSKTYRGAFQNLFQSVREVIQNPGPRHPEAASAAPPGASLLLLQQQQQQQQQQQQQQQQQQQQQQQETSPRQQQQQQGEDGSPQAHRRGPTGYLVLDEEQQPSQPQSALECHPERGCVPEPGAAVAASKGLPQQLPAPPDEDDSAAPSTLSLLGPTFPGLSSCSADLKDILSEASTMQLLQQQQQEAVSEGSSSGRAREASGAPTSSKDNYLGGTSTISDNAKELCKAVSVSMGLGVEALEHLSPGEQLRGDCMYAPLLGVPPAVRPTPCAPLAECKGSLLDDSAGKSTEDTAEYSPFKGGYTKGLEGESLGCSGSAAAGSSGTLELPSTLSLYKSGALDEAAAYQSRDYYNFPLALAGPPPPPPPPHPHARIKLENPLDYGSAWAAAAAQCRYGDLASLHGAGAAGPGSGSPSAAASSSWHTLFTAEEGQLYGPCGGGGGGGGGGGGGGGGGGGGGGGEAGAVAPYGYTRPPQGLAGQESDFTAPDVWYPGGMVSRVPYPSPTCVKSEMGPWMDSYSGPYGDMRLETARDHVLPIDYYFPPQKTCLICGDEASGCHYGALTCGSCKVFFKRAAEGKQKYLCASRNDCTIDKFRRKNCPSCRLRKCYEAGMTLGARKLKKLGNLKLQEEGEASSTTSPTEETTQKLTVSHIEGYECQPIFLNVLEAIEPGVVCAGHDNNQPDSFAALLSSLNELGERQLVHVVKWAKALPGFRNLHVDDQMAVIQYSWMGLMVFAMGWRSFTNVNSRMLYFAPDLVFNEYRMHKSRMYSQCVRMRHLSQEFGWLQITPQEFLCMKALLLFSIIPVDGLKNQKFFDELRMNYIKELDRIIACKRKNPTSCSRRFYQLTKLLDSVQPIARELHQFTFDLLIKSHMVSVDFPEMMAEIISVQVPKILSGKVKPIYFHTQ
# Test: Androgen Receptor ELISA assay (PathScan AR ELISA) in VCaP cells: AR degradation, Dmax and DC50
# Assay type: cell-based
# Conditions: for Dmax: VCaP; for DC50: read-out: VCaP DC50
# Method in brief: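 VCaP cells in phenol red-free RPMI with 5% charcoal-stripped FBS were grown at least 3 days, then given compound as 7 half-log doses in 0.1% DMSO with 0.1 nM R1881 for 24 h. Lysates went into a sandwich AR ELISA with TMB read at 450 nm.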
# [1] = highest percentage of Androgen Receptor degradation observed, VCaP cells (Table 32), read-out: VCaP Dmax (%)
# [2] = concentration that caused 50% Androgen Receptor degradation, VCaP cells (Table 32)
# [3] = read-out: VCaP Dmax (%), VCaP cells, Table 36
# [4] = VCaP cells, Table 36, read-out: VCaP Dmax (%)
Structure (SMILES),"DC50 (VCaP cells, Table 36) [nM]",Dmax [4] [%],further results
"Cc1ncsc1-c1ccc(CNC(=O)[C@@H]2C[C@@H](O)CN2C(=O)[C@@H](NC(=O)COCCCC[C@@H](C)Oc2ccc(C(=O)N[C@H]3C(C)(C)[C@H](Oc4ccc(C#N)c(Cl)c4)C3(C)C)cc2)C(C)(C)C)cc1 [Example 160, (2S,4R)-1-[(2S)-3,3-dimethyl-2-(2-{[(5S)-5-(4-{[trans-3-(3-chloro-4-cyanophenoxy)-2,2,4,4-tetramethylcyclobutyl]carbamoyl}phen-oxy)hexyl]oxy}acetamido)butanoyl]-4-hydroxy-N-{[4-(4-methyl-1,3-thiazol-5-yl)phenyl]methyl}pyrrolidine-2-carboxamide]",,,Dmax [1]: > 71%; DC50 [2]: < 50 nM
Cc1ncsc1-c1ccc([C@H](C)NC(=O)[C@@H]2C[C@@H](O)CN2C(=O)C(NC(=O)COCCCCCNc2ccc(C(=O)N[C@H]3C(C)(C)[C@@H](Oc4ccc(C#N)c(Cl)c4)C3(C)C)cc2)C(C)(C)C)cc1 (some centres unmarked) [Example 455],,,"DC50 (VCaP cells, Table 35): > 501 nM; Dmax (VCaP cells, Table 35, read-out: VCaP Dmax (%)): 51 to 70%"
Cc1ncsc1-c1ccc([C@H](C)NC(=O)[C@@H]2C[C@@H](O)CN2C(=O)[C@@H](NC(=O)COCCCCOc2ccc(-c3ccc(N4C(=S)N(c5ccc(C#N)c(C(F)(F)F)c5)C(=O)C4(C)C)cn3)cn2)C(C)(C)C)cc1 [Example 401],,,"Dmax (read-out: VCaP Dmax (%)): > 71%; DC50 (VCaP cells, Table 34): < 50 nM"
"CC(C)[C@@H](C(=O)N1C[C@H](O)C[C@H]1C(=O)NCc1ccc(Cl)cc1)N1Cc2ccc(N3CCN(CCCc4ccc(C(=O)N[C@H]5C(C)(C)[C@H](Oc6ccc(C#N)c(C(F)(F)F)c6)C5(C)C)cc4)CC3)cc2C1=O [Example 770, (2S,4R)-N-(4-chlorobenzyl)-1-((S)-2-(6-(4-(3-(4-(((1r,3r)-3-(4-cyano-3-(trifluoromethyl)phenoxy)-2,2,4,4-tetramethylcylcobutyl)carbamoyl)phenyl)propyl)piperazin-1-yl)-1-oxoisoindolin-2-yl)-3-methylbutanoyl)-4-hydroxypyrrolidine-2-carboxamide]",> 501,< 25,
Cc1ncsc1-c1ccc(CNC(=O)[C@@H]2C[C@@H](O)CN2C(=O)C(NC(=O)COCCN2CCN(c3ccc(C(=O)N[C@H]4C(C)(C)[C@H](Oc5ccc(C#N)c(C(F)(F)F)c5)C4(C)C)cn3)C(=O)C2)C(C)(C)C)cc1 (some centres unmarked) [Example 703],> 501,< 25,
"Cc1ncsc1-c1ccc([C@H](C)NC(=O)[C@@H]2C[C@@H](O)CN2C(=O)[C@@H](NC(=O)CN2CCN(CCCN3CCN(c4ccc(C(=O)N[C@H]5C(C)(C)[C@H](Oc6ccc(C#N)c(Cl)c6)C5(C)C)cn4)CC3)CC2)C(C)(C)C)cc1 [Example 717, N-((1r,3r)-3-(3-chloro-4-cyanophenoxy)-2,2,4,4-tetramethylcyclobutyl)-6-(4-(3-(4-(2-(((S)-1-((2S,4R)-4-hydroxy-2-(((S)-1-(4-(4-methylthiazol-5-yl)phenyl)ethyl)carbam-oyl)pyrrolidin-1-yl)-3,3-dimethyl-1-oxobutan-2-yl)amino)-2-oxoethyl)piperazin-1-yl)propyl)piperazin-1-yl)nicotinamide]",< 50,,Dmax (read-out: VCaP Dmax (%)): 51 to 70%
"Cc1ncsc1-c1ccc(CNC(=O)[C@@H]2C[C@@H](O)CN2C(=O)[C@@H](NC(=O)COCCCCOc2ccc(C(=O)N[C@H]3C(C)(C)[C@H](Oc4ccc(C#N)c(C(F)(F)F)c4)C3(C)C)cc2)C(C)(C)C)cc1 [Example 165, (2S,4R)-1-[(2S)-3,3-dimethyl-2-{2-[4-(4-{[trans-3-[4-cyano-3-(trifluoromethyl)phenoxy]-2,2,4,4-tetramethylcyclobutyl]carbamoyl}phenoxy)butoxy]acetamido}butanoyl]-4-hydroxy-N-{[4-(4-methyl-1,3-thiazol-5-yl)phenyl]methyl}pyrrolidine-2-carboxamide]",,,Dmax [1]: > 71%; DC50 [2]: < 50 nM
"Cc1ncsc1-c1ccc([C@H](C)NC(=O)[C@@H]2C[C@@H](O)CN2C(=O)[C@@H](NC(=O)CN[C@H]2C[C@@H](N3CCN(c4ccc(C(=O)N[C@H]5C(C)(C)[C@H](Oc6ccc(C#N)c(Cl)c6)C5(C)C)cn4)CC3)C2)C(C)(C)C)cc1 [Example 861, N-((1r,3R)-3-(3-chloro-4-cyanophenoxy)-2,2,4,4-tetramethylcyclobutyl)-6-(4-((1R,3S)-3-((2-(((S)-1-((2S,4R)-4-hydroxy-2-(((S)-1-(4-(4-methylthiazol-5-yl)phenyl)ethyl)carbamoyl)pyrrolidin-1-yl)-3,3-dimethyl-1-oxobutan-2-yl)amino)-2-oxoethyl)amino)cyclobutyl)piperazin-1-yl)nicotinamide]",< 50,,Dmax (read-out: VCaP Dmax (%)): 51 to 70%
"C/C(=N\OCCN1CCN(CC(=O)N[C@H](C(=O)N2C[C@H](O)C[C@H]2C(=O)N[C@@H](C)c2ccc(-c3scnc3C)cc2)C(C)(C)C)CC1)c1cc(C(=O)N[C@@H](C)Cn2ccc(-c3ccc(C#N)c(Cl)c3)n2)n[nH]1 [Example 864, N-((S)-1-(3-(3-Chloro-4-cyanophenyl)-1H-pyrazol-1-yl)propan-2-yl)-5-((E)-1-((2-(4-(2-(((S)-1-((2S,4R)-4-hydroxy-2-(((S)-1-(4-(4-methylthiazol-5-yl)phenyl)ethyl)carbamoyl)pyrrolidin-1-yl)-3,3-dimethyl-1-oxobutan-2-yl)amino)-2-oxoethyl)piperazin-1-yl)ethoxy)imino)ethyl)-1H-pyrazole-3-carboxamide]",< 50,< 25,

# More lines, main results first:
"DC50 (VCaP cells, Table 36) [nM]",Dmax [4] [%],Structure (SMILES),further results
> 501,,"Cc1ncsc1-c1ccc([C@H](C)NC(=O)[C@@H]2C[C@@H](O)CN2C(=O)[C@H](c2cc(CCCCN3CCN(c4ccc(C(=O)N[C@H]5C(C)(C)[C@H](Oc6ccc(C#N)c(Cl)c6)C5(C)C)cn4)CC3)no2)C(C)C)cc1 [Example 830, N-((1r,3r)-3-(3-chloro-4-cyanophenoxy)-2,2,4,4-tetramethylcyclobutyl)-6-(4-(4-(5-((S)-1-((2S, 4R)-4-hydroxy-2-(((S)-1-(4-(4-methylthiazol-5-yl)phenyl)ethyl)carbamoyl)pyrrolidin-1-yl)-3-methyl-1-oxobutan-2-yl)isoxazol-3-yl)butyl)piperazin-1-yl)nicotinamide]",Dmax [3]: < 25%
< 50,51 to 70,"Cc1ncsc1-c1ccc([C@H](C)NC(=O)C2C[C@@H](O)CN2C(=O)C(NC(=O)CN2CCN(CCN3CCN(c4ccc(C(=O)NC5C(C)(C)C(Oc6ccc(C#N)c(Cl)c6)C5(C)C)cn4)C[C@H]3CO)CC2)C(C)(C)C)cc1 (stereo partly drawn) [Example 843, N-((1r,3S)-3-(3-chloro-4-cyanophenoxy)-2,2,4,4-tetramethylcyclobutyl)-6-((S)-4-(2-(4-(2-(((S)-1-((2S,4R)-4-hydroxy-2-(((S)-1-(4-(4-methylthiazol-5-yl)phenyl)ethyl)carbamoyl)pyrrolidin-1-yl)-3,3-dimethyl-1-oxobutan-2-yl)amino)-2-oxoethyl)piperazin-1-yl)ethyl)-3-(hydroxymethyl)piperazin-1-yl) nicotinamide]",
> 501,,"Cc1ncsc1-c1ccc([C@H](C)NC(=O)[C@@H]2C[C@@H](O)CN2C(=O)[C@H](NC(=O)CN2CCN(CCCc3ccc(C(=O)N[C@H]4C(C)(C)[C@H](Oc5ccc(C#N)c(C#N)c5)C4(C)C)cc3)CC2)C2COC2)cc1 [Example 745, (2S,4R)-1-((R)-2-(2-(4-(3-(4-(((1r,3r)-3-(3,4-dicyanophenoxy)-2,2,4,4-tetramethylcyclobutyl)carbamoyl)phenyl)propyl)piperazin-1-yl)acetamido)-2-(oxetan-3-yl)acetyl)-4-hydroxy-N-((S)-1-(4-(4-methylthiazol-5-yl)phenyl)ethyl)pyrrolidine-2-carboxamide]",Dmax [3]: < 25%
> 501,,"Cc1ncsc1-c1ccc([C@H](C)NC(=O)[C@@H]2C[C@@H](O)CN2C(=O)[C@@H](NC(=O)COCCN2CCN(c3ccc(C(=O)N[C@H]4C(C)(C)[C@H](Oc5ccc(C#N)c(Cl)c5)C4(C)C)cc3)CC2)C(C)(C)O)cc1 [Example 660, (2S,4R)-1-((S)-2-(2-(2-(4-(4-(((1r,3r)-3-(3-chloro-4-cyanophenoxy)-2,2,4,4-tetramethylcyclobutyl)carbamoyl)phenyl)piper-azin-1-yl)ethoxy)acetamido)-3-hydroxy-3-methylbutanoyl)-4-hydroxy-N-((S)-1-(4-(4-methylthiazol-5-yl)phenyl)ethyl)pyrrolidine-2-carboxamide]",Dmax [3]: 26 to 50%
